Paper PMC9181126, “Design, Synthesis, Molecular Docking Analysis and Biological Evaluations of 4-[(Quinolin-4-yl)amino]benzamide Derivatives as Novel Anti-Influenza Virus Agents” (International Journal of Molecular Sciences, 2022)

What was measured:
[1] = in vitro; type: cell-based; settings: human
Method in brief: (§1)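 Cells were seeded and compound medium added after 48 h, then incubated 72 h at 37 °C, 5% CO2. Viability was measured by MTT (4 h), then solubilization and absorbance at 620 nm after a further 3 h. DMSO-only wells were taken as 100% viable.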

[2] = tested on: HEK293T cells; assay: in vitro; type: cell-based; settings: human, 72 h
Method in brief: as §1

[3] = biological target: ribonucleoprotein (RNP) of influenza virus (Influenza A virus, UniProt P15659); assay: cell-based; settings: HEK-293T; concentration 100 µM; read-out: RNP Reconstitution Assay Inhibition Rate
[4] = tested on: influenza virus A/WSN/33 (H1N1); assay: microbe, parasite or virus in culture; type: cell-based; settings: MDCK, 72 h; for inhibition at 12.5 µM / inhibition at 25 µM / inhibition at 50 µM / inhibition at 100 µM: H1N1|WSN, read-out: Antiviral activity in CPE assay; for EC50: read-out: Cytopathic Effect Assay (A/WSN/33, H1N1) EC50
[5] = tested on: MDCK cells; assay: in vitro; type: cell-based, canine; settings: dog, 72 h
Method in brief: as §1

[6] = in vitro; type: cell-based, canine; settings: dog
Method in brief: as §1

[7] = tested on: influenza virus A/WSN/33 (H1N1); assay: Plaque inhibition assay in MDCK cells; type: cell-based; settings: for inhibition at 100 µM: MDCK, concentration 100 µM, read-out: Plaque Inhibition Assay (A/WSN/33, H1N1) Inhibition Rate
[8] = tested on: PA-PB1 endonuclease; set-up: method as in supplement 1-7; settings: training and test set compounds collected from literature; ref supplement 1-7; read-out: IC50 value Experimental (PA-PB1 endonuclease inhibitors); cited from earlier work
[9] = tested on: PA-PB1 endonuclease; assay: Experimental PA-PB1 inhibitory activity of literature inhibitors (training and test set); type: biochemical, influenza virus; settings: class of the experimental IC50

| SMILES | CC50 at 72 h [1] | HEK293T cells survival rate ([2]; 3.125 µmol·L−1) | HEK293T cells survival rate ([2]; 6.25 µmol·L−1) | HEK293T cells survival rate ([2]; 12.5 µmol·L−1) | HEK293T cells survival rate ([2]; 25 µmol·L−1) | HEK293T cells survival rate ([2]; 50 µmol·L−1) | HEK293T cells survival rate ([2]; 100 µmol·L−1) | melting point | inhibition at 100 µM [3] | inhibition at 12.5 µM [4] | inhibition at 25 µM [4] | inhibition at 50 µM [4] | inhibition at 100 µM [4] | EC50 [4] | MDCK cells survival rate ([5]; 12.5 µmol·L−1) | MDCK cells survival rate ([5]; 25 µmol·L−1) | MDCK cells survival rate ([5]; 50 µmol·L−1) | MDCK cells survival rate ([5]; 100 µmol·L−1) | CC50 at 72 h [6] | inhibition at 100 µM [7] | further results |
| --- | --- | --- | --- | --- | --- | --- | --- | --- | --- | --- | --- | --- | --- | --- | --- | --- | --- | --- | --- | --- | --- |
| CCNC(=O)c1ccc(Nc2ccnc3cc(C(F)(F)F)ccc23)cc1 [Compound G01, N-Ethyl-4-{[7-(trifluoromethyl)quinolin-4-yl]amino}benzamide] | > 100 µM | 91.00±7.40% | 90.01±2.87% | 93.22±5.27% | 92.83±4.26% | 88.18±3.27% | 94.92±8.61% | 262.8 to 264.5 °C | 21% | 48 ± 4.04% | 56.6 ± 3.96% | 53 ± 4.28% | 70.9 ± 2.63% | 16.5 ± 5.57 µM | 123.45±5.51% | 112.08±3.35% | 121.65±8.73% | 160.62±4.70% | > 100 µM | 81.6% | – |
| CC(C)NC(=O)c1ccc(Nc2ccnc3cc(C(F)(F)F)ccc23)cc1 [Compound G02, N-Isopropyl-4-{[7-(trifluoromethyl)quinolin-4-yl]amino}benzamide] | > 100 µM | 95.91±3.00% | 87.90±2.52% | 85.31±11.55% | 74.04±2.91% | 75.54±11.17% | 66.13±2.32% | 243.7 to 245.9 °C | 3.1% | 53.6 ± 3.38% | 61.6 ± 2.13% | 76.7 ± 2.26% | 80.6 ± 9.03% | 10.1 ± 1.66 µM | 153.38±36.06% | 137.54±0.71% | 140.08±12.49% | 203.79±6.42% | > 100 µM | < 10% | – |
| O=C(NCCO)c1ccc(Nc2ccnc3cc(C(F)(F)F)ccc23)cc1 [Compound G04, N-(2-Hydroxyethyl)-4-{[7-(trifluoromethyl)quinolin-4-yl]amino}benzamide] | > 100 µM | 112.00±4.22% | 100.01±1.56% | 94.50±4.33% | 91.99±5.43% | 98.62±11.78% | 96.30±10.52% | 262.5 to 264.1 °C | 14% | 55.3 ± 4.28% | 54.6 ± 4.19% | 57.1 ± 9.3% | 49.3 ± 0.74% | > 100 µM | 118.54±1.29% | 110.54±13.59% | 126.43±7.03% | 124.89±12.49% | > 100 µM | 59.3% | – |
| O=C(NCCCO)c1ccc(Nc2ccnc3cc(C(F)(F)F)ccc23)cc1 [Compound G05, N-(3-Hydroxypropyl)-4-{[7-(trifluoromethyl)quinolin-4-yl]amino}benzamide] | > 100 µM | 106.06±4.46% | 109.11±25.17% | 96.82±2.21% | 95.07±1.76% | 93.06±1.61% | 122.90±10.09% | 249.6 to 250.4 °C | 17.6% | 42 ± 5.5% | 48.6 ± 2.31% | 50.2 ± 1.8% | 56 ± 4.37% | 40.9 ± 5.64 µM | 113.26±1.76% | 110.22±4.44% | 101.63±4.85% | 111.87±2.49% | > 100 µM | 82.9% | – |
| O=C(c1ccc(Nc2ccnc3cc(C(F)(F)F)ccc23)cc1)N1CCOCC1 [Compound G12, Morpholino{4-{[7-(trifluoromethyl)quinolin-4-yl]amino}phenyl}methanone] | > 100 µM | 100.47±5.92% | 89.50±2.30% | 86.67±6.98% | 88.50±7.54% | 80.68±3.36% | 74.00±4.57% | 277.9 to 278.7 °C | 50% | 70.9 ± 4.82% | 97.6 ± 3.67% | 75.7 ± 9.49% | 76.7 ± 5.27% | > 100 µM | 92.77±4.37% | 137.81±3.21% | 130.46±5.65% | 120.48±10.37% | > 100 µM | < 10% | – |
| Cc1ccc(-c2cc(-c3ccccc3)nc(SC(C)C(=O)Nc3cccc(Cl)c3)c2C#N)cc1 (stereo not drawn) [Compound H36] | – | – | – | – | – | – | – | – | – | – | – | – | – | – | – | – | – | – | – | – | IC50 [8]: 125 µM; Activity scale Experimental [9]: ++ (++, IC50 100 to 150 μM (moderately active)) |
| Cc1ccc(-c2cc(-c3ccccc3)nc(SC(C)C(=O)Nc3ccc(C)c(C)c3)c2C#N)cc1 (stereo not drawn) [Compound H38] | – | – | – | – | – | – | – | – | – | – | – | – | – | – | – | – | – | – | – | – | IC50 [8]: 180 µM; Activity scale Experimental [9]: + (+, IC50 >150 μM (inactive)) |
| Cc1onc(-c2ccccc2)c1C(=O)N1CCN(c2ccc([N+](=O)[O-])cc2Cl)CC1 [nucleozin, reference compound] | – | – | – | – | – | – | – | – | 92.9% | – | – | – | – | 0.21 ± 0.15 µM | – | – | – | – | – | 99.5% | IC50 ([7]; MDCK cells): 0.15 ± 0.11 µM |
